Reference: US20170190671A1, “BIS(ARYL)CATECHOL DERIVATIVES AS HERBICIDES” (E I DU PONT DE NEMOURS AND COMPANY, priority 2014, published 2017)

Key:
Test in all cases: Test C preemergence
Assay type in all cases: in vivo
[1] = system: Italian ryegrass (Lolium multiflorum); conditions: Lolium multiflorum, pre-emergence, 336 h, scale 0 to 100, read-out: Plant response rating, Ryegrass, Italian
Method in brief: (§1)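 0-100 visual injury score (100 = complete control), assessed at 13-15 d after treatment against controls; surfactant-containing solvent formulation applied preemergence to seeded loam-sand soil or sprayed onto 1- to 4-leaf greenhouse plants.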

[2] = system: barnyardgrass (Echinochloa crus-galli); conditions: Echinochloa crus-galli, pre-emergence, read-out: Plant response rating, Barnyardgrass
Method in brief: as §1

[3] = system: blackgrass (Alopecurus myosuroides); conditions: Alopecurus myosuroides, pre-emergence, 336 h, scale 0 to 100, read-out: Plant response rating, Blackgrass
Method in brief: as §1

corn (Zea mays) = conditions: Zea mays, pre-emergence, 336 h, scale 0 to 100
Method in brief: as §1

[4] = system: giant foxtail (Setaria faberii); conditions: Setaria faberi, pre-emergence, 336 h, scale 0 to 100, read-out: Plant response rating, Foxtail, Giant
Method in brief: as §1

[5] = system: johnsongrass (Sorghum halepense); conditions: Sorghum halepense, pre-emergence, 336 h, scale 0 to 100, read-out: Plant response rating, Johnsongrass
Method in brief: as §1

[6] = system: large (Lg) crabgrass (Digitaria sanguinalis); conditions: Digitaria sanguinalis, pre-emergence, 336 h, scale 0 to 100, read-out: Plant response rating, Crabgrass, Large
Method in brief: as §1

[7] = system: morningglory (Ipomoea coccinea); conditions: Ipomoea, pre-emergence, 336 h, scale 0 to 100, read-out: Plant response rating, Morningglory
Method in brief: as §1

[8] = system: oilseed rape (Brassica napus); conditions: Brassica napus, pre-emergence, scale 0 to 100, read-out: Plant response rating, Oilseed Rape
Method in brief: as §1

[9] = system: pigweed (Amaranthus retroflexus); conditions: Amaranthus retroflexus, pre-emergence, 336 h, scale 0 to 100, read-out: Plant response rating, Pigweed
Method in brief: as §1

[10] = system: ragweed (common ragweed, Ambrosia elatior); conditions: Ambrosia artemisiifolia, pre-emergence, 336 h, scale 0 to 100, read-out: Plant response rating, Ragweed
Method in brief: as §1

soybean (Glycine max) = conditions: Glycine max, pre-emergence, scale 0 to 100, read-out: Plant response rating, Soybean
Method in brief: as §1

[11] = system: velvetleaf (Abutilon theophrasti); conditions: Abutilon theophrasti, pre-emergence, scale 0 to 100, read-out: Plant response rating, Velvetleaf
Method in brief: as §1

[12] = system: waterhemp (common waterhemp, Amaranthus rudis); conditions: Amaranthus tuberculatus, pre-emergence, scale 0 to 100, read-out: Plant response rating, Waterhemp
Method in brief: as §1

[13] = system: winter wheat (Triticum aestivum); conditions: Triticum aestivum, pre-emergence, 336 h, scale 0 to 100, read-out: Plant response rating, Wheat
Method in brief: as §1

Clc1cnc(Oc2cccc(Br)c2Oc2ncc(Cl)cn2)nc1 [Compound 19, 2,2′-[[3-bromo-1,2-phenylene]bis(oxy)]bis[5-chloropyrimidine]]
55%: pest or weed control at 31 g/ha ([2]; 31 g ai/ha, preemergence, scale 0 to 100) | pest or weed control at 62 g/ha ([10]; 62 g ai/ha, preemergence)
30%: pest or weed control at 16 g/ha ([3]; Preemergence, 16 g ai/ha) | plant injury at 16 g/ha ([8]; Preemergence, 16 g ai/ha) | pest or weed control at 31 g/ha ([10]; 31 g ai/ha, preemergence)
85%: pest or weed control at 62 g/ha ([5]; 62 g ai/ha, preemergence) | plant injury at 31 g/ha ([8]; 31 g ai/ha, preemergence) | plant injury at 125 g/ha ([13]; 125 g ai/ha, preemergence)
25%: Corn plant response rating (crop injury, 0 = no effect, 100 = complete kill) at 31 g/ha (corn (Zea mays); 31 g ai/ha, preemergence) | plant injury at 16 g/ha (soybean (Glycine max); Preemergence, 16 g ai/ha) | plant injury at 31 g/ha ([13]; 31 g ai/ha, preemergence)
50%: pest or weed control at 31 g/ha ([1]; 31 g ai/ha, preemergence) | pest or weed control at 31 g/ha ([5]; 31 g ai/ha, preemergence) | plant injury at 31 g/ha (soybean (Glycine max); 31 g ai/ha, preemergence)
90%: pest or weed control at 125 g/ha ([1]; 125 g ai/ha, preemergence) | pest or weed control at 62 g/ha ([3]; 62 g ai/ha, preemergence) | Corn plant response rating (crop injury, 0 = no effect, 100 = complete kill) at 125 g/ha (corn (Zea mays); 125 g ai/ha, preemergence) | pest or weed control at 62 g/ha ([7]; 62 g ai/ha, preemergence) | plant injury at 62 g/ha (soybean (Glycine max); 62 g ai/ha, preemergence)
70%: pest or weed control at 62 g/ha ([1]; 62 g ai/ha, preemergence)
0%: pest or weed control at 16 g/ha ([10]; Preemergence, 16 g ai/ha) | plant injury at 16 g/ha ([13]; Preemergence, 16 g ai/ha)
45%: pest or weed control at 31 g/ha ([7]; 31 g ai/ha, preemergence)
40%: pest or weed control at 31 g/ha ([3]; 31 g ai/ha, preemergence) | plant injury at 62 g/ha ([13]; 62 g ai/ha, preemergence)
98%: pest or weed control at 125 g/ha ([5]; 125 g ai/ha, preemergence) | pest or weed control at 16 g/ha ([6]; Preemergence, 16 g ai/ha) | plant injury at 62 g/ha ([8]; 62 g ai/ha, preemergence) | pest or weed control at 31 g/ha ([11]; 31 g ai/ha, preemergence)
60%: pest or weed control at 16 g/ha ([4]; Preemergence, 16 g ai/ha) | pest or weed control at 125 g/ha ([10]; 125 g ai/ha, preemergence) | pest or weed control at 16 g/ha ([11]; Preemergence, 16 g ai/ha)
100%: pest or weed control at 62 g/ha ([2]; 62 g ai/ha, preemergence, scale 0 to 100) | pest or weed control at 125 g/ha ([2]; 125 g ai/ha, preemergence, scale 0 to 100) | pest or weed control at 31 g/ha ([4]; 31 g ai/ha, preemergence) | pest or weed control at 62 g/ha ([4]; 62 g ai/ha, preemergence) | pest or weed control at 125 g/ha ([4]; 125 g ai/ha, preemergence) | pest or weed control at 31 g/ha ([6]; 31 g ai/ha, preemergence) | pest or weed control at 62 g/ha ([6]; 62 g ai/ha, preemergence) | pest or weed control at 125 g/ha ([6]; 125 g ai/ha, preemergence) | pest or weed control at 125 g/ha ([7]; 125 g ai/ha, preemergence) | plant injury at 125 g/ha ([8]; 125 g ai/ha, preemergence) | pest or weed control at 31 g/ha ([9]; 31 g ai/ha, preemergence) | pest or weed control at 62 g/ha ([9]; 62 g ai/ha, preemergence) | pest or weed control at 125 g/ha ([9]; 125 g ai/ha, preemergence) | pest or weed control at 16 g/ha ([9]; Preemergence, 16 g ai/ha) | pest or weed control at 62 g/ha ([11]; 62 g ai/ha, preemergence) | pest or weed control at 125 g/ha ([11]; 125 g ai/ha, preemergence) | pest or weed control at 31 g/ha ([12]; 31 g ai/ha, preemergence) | pest or weed control at 62 g/ha ([12]; 62 g ai/ha, preemergence) | pest or weed control at 125 g/ha ([12]; 125 g ai/ha, preemergence) | pest or weed control at 16 g/ha ([12]; Preemergence, 16 g ai/ha)
35%: pest or weed control at 16 g/ha ([5]; Preemergence, 16 g ai/ha)
5%: pest or weed control at 16 g/ha ([1]; Preemergence, 16 g ai/ha) | Corn plant response rating (crop injury, 0 = no effect, 100 = complete kill) at 16 g/ha (corn (Zea mays); Preemergence, 16 g ai/ha) | pest or weed control at 16 g/ha ([7]; Preemergence, 16 g ai/ha)
95%: pest or weed control at 125 g/ha ([3]; 125 g ai/ha, preemergence)
80%: Corn plant response rating (crop injury, 0 = no effect, 100 = complete kill) at 62 g/ha (corn (Zea mays); 62 g ai/ha, preemergence) | plant injury at 125 g/ha (soybean (Glycine max); 125 g ai/ha, preemergence)
15%: pest or weed control at 16 g/ha ([2]; Preemergence, 16 g ai/ha, scale 0 to 100 (0 no effect, 100 complete control))
